# Laboratory results published in patent US10406218B2 (priority 2014, dated 2019).
# Where two headings read alike, the source gives them in different places.
# Test system: PBMC from 30 HC individuals
# Experiment: ex vivo IFNγ ELISPOT with NTM-specific peptides
# Format: cell-based, human
# [1] = response frequency among HC donors, NTM-specific peptides (Table 2)
# [2] = total spot forming cells, IFNγ ELISPOT, NTM-specific peptides (Table 2)
Substance,Resp Freq [1],Total SFC [2],Resp Freq,Total SFC
47 (VEFFRAVPVLIMMIF) [Peptide 47],3%,40 SFC,–,–
78 (IVGAALFLASDASSF) [Peptide 78],3%,32 SFC,–,–
88 (ALVLVSLLTALAAGI) [Peptide 88],3%,28 SFC,–,–
106 (GLSSAWLSLIFAEMI) [Peptide 106],3%,55 SFC,–,–
175 (LDYFLNLMLRAPFRL) [Peptide 175],3%,32 SFC,–,–
205 (TTSLAFLVAFRPGLV) [Peptide 205],3%,45 SFC,–,–
257 (FFHIYGMTVLLNAAL) [Peptide 257],3%,35 SFC,–,–
281 (IVAHYILQYATEELR) [Peptide 281],3%,25 SFC,–,–
323 (MIEMLAMSDLSLMVK) [Peptide 323],3%,38 SFC,–,–
387 (RGQFWIWAGANIAPI) [Peptide 387],3%,47 SFC,–,–
397 (ALMNQFISLLKASSL) [Peptide 397],3%,40 SFC,–,–
400 (MKELLAENLMVMMRD) [Peptide 400],3%,32 SFC,–,–
405 (PLVYFIDSMLQVDDL) [Peptide 405],3%,33 SFC,–,–
417 (GVVAAIIAYNYPNQL) [Peptide 417],3%,28 SFC,–,–
421 (DPAFRQVFAAQFLPD) [Peptide 421],3%,40 SFC,–,–
424 (AVPNFALTPLLIIWM) [Peptide 424],3%,55 SFC,–,–
438 (GSVLLVQALLVTSLL) [Peptide 438],3%,25 SFC,–,–
439 (GMVFQSFNLFAHKTI) [Peptide 439],3%,28 SFC,–,–
447 (DDRRTLLWLANQRAV) [Peptide 447],3%,53 SFC,–,–
531 (LDSFQLFPNFVILFW) [Peptide 531],3%,28 SFC,–,–
537 (VEPVDISNAVLFLAS) [Peptide 537],3%,43 SFC,–,–
538 (VEVVSAEALQLPLWG) [Peptide 538],3%,30 SFC,–,–

Substance,Resp Freq [1],Total SFC [2],Resp Freq,Total SFC
540 (VVYAFMSLFVVNVVV) [Peptide 540],3%,25 SFC,–,–
543 (VIMPWMIFYQQGAVV) [Peptide 543],3%,43 SFC,–,–
586 (ELVWLGAAMIIGAGS) [Peptide 586],3%,37 SFC,–,–
588 (HLFQVMAFVVMEPPT) [Peptide 588],3%,52 SFC,–,–
621 (AKVLGVFLVTEIVML) [Peptide 621],3%,27 SFC,–,–
626 (ARAGFAASGVLHLLV) [Peptide 626],3%,48 SFC,–,–
628 (LGVFPLIVMFLITSI) [Peptide 628],3%,53 SFC,–,–
629 (VQFMPLVIAPQLLLC) [Peptide 629],3%,37 SFC,–,–
645 (PASILILFAPGAPRE) [Peptide 645],3%,23 SFC,–,–
646 (ADAVNFGVAPAFIVY) [Peptide 646],3%,37 SFC,–,–
651 (FSWFAAGMVLAELTV) [Peptide 651],3%,22 SFC,–,–
658 (VRRVLPALMNQFISL) [Peptide 658],3%,32 SFC,–,–
659 (GLLYVPQLATISATF) [Peptide 659],3%,38 SFC,–,–
672 (ASGTLLFKLTPWIVV) [Peptide 672],3%,25 SFC,–,–
691 (LANPGIVSIPLAFIL) [Peptide 691],3%,23 SFC,–,–
697 (RSLMFPTLASLIEER) [Peptide 697],3%,25 SFC,–,–
712 (VVLMIFRPQGLFPAR) [Peptide 712],3%,27 SFC,–,–
713 (EGELHLFTPEVVFLL) [Peptide 713],3%,30 SFC,–,–
714 (AFTHFALLANVAEDI) [Peptide 714],3%,35 SFC,–,–
718 (LGPTAGLTVASALLV) [Peptide 718],3%,28 SFC,–,–
732 (PLRVAFLIVLIGTTV) [Peptide 732],3%,33 SFC,–,–
745 (VFALMGLRQLYFLLG) [Peptide 745],3%,35 SFC,–,–

Substance,Resp Freq [1],Total SFC [2],Resp Freq,Total SFC
760 (AEWVVRTILSLLTVR) [Peptide 760],3%,38 SFC,–,–
787 (DVDIDQLRSFLADKV) [Peptide 787],3%,38 SFC,–,–
804 (NSSIVLISLPAIFRG) [Peptide 804],3%,57 SFC,–,–
841 (PQFLIMPKLIPALIA) [Peptide 841],3%,48 SFC,–,–
861 (MVFATLLPLGVLQLY) [Peptide 861],3%,47 SFC,–,–
865 (TPLFMAHYAPFGLLT) [Peptide 865],3%,25 SFC,–,–
871 (LVYLVGFKTKVSTLL) [Peptide 871],3%,28 SFC,–,–
883 (EWFARILFSLFSTPS) [Peptide 883],3%,28 SFC,–,–
898 (GQRVITLLASANRDE) [Peptide 898],3%,23 SFC,–,–
937 (HLMQSVVMVSFPVEV) [Peptide 937],3%,22 SFC,–,–
945 (ALIHVLWINAGLSCD) [Peptide 945],3%,23 SFC,–,–
953 (FEHSVVNMFLFPSGL) [Peptide 953],3%,25 SFC,–,–
963 (VLVVFLLPALRDGAP) [Peptide 963],3%,25 SFC,–,–
1001 (KGGLRFHPSVYLGIV) [Peptide 1001],3%,37 SFC,–,–
1004 (ARQMLRFLSSPLWRA) [Peptide 1004],3%,27 SFC,–,–
1072 (HIELALYRIAQECLQ) [Peptide 1072],3%,37 SFC,–,–
1075 (SPEQAYLLLGAAPIE) [Peptide 1075],3%,22 SFC,–,–
1077 (GFVTEFLQREVQNFL) [Peptide 1077],3%,22 SFC,–,–
1132 (FLFTMLQKTLKGNIF) [Peptide 1132],3%,35 SFC,–,–
1134 (TLLTMLWQNLIGNAV) [Peptide 1134],3%,47 SFC,–,–
1141 (HAEYKQVTVLFADVV) [Peptide 1141],3%,38 SFC,–,–
1196 (MVWRAAAAIELGICD) [Peptide 1196],3%,35 SFC,–,–

Substance,Resp Freq [1],Total SFC [2],Resp Freq,Total SFC
1204 (TPGLNLVYAHLNRII) [Peptide 1204],3%,30 SFC,–,–
1218 (RTFFRYFPTKESVLF) [Peptide 1218],3%,48 SFC,–,–
1244 (LIFDGVFDRFPTLRI) [Peptide 1244],3%,35 SFC,–,–
1255 (GNELWQIALLELWLQ) [Peptide 1255],3%,37 SFC,–,–
1284 (NAVLFLASDEARYIT) [Peptide 1284],3%,25 SFC,–,–
1285 (PADASIVKLYYSELL) [Peptide 1285],3%,53 SFC,–,–
1331 (VEAGMVYVTLPPLFV) [Peptide 1331],3%,58 SFC,–,–
1334 (FFDAGLVVFLPIIMT) [Peptide 1334],3%,47 SFC,–,–
1350 (LFFLFPLYAMADFST) [Peptide 1350],3%,30 SFC,–,–
1368 (TMMLSLVWPIASLGF) [Peptide 1368],3%,40 SFC,–,–
1393 (ANVRYISGAPQLWVV) [Peptide 1393],3%,42 SFC,–,–
1452 (TTPHFLVEGAIIAAY) [Peptide 1452],3%,43 SFC,–,–
1458 (HFVSTLSATFPEGED) [Peptide 1458],3%,47 SFC,–,–
1474 (MFETMAAFMLVEHAN) [Peptide 1474],3%,23 SFC,–,–
1525 (FFHRGLMLMSFDEHL) [Peptide 1525],3%,25 SFC,–,–
1526 (VATVRAASSLVRAPL) [Peptide 1526],3%,27 SFC,–,–
1529 (EGIVFALGGALDFSY) [Peptide 1529],3%,23 SFC,–,–
1542 (GRVAWNIVTSYLDSA) [Peptide 1542],3%,52 SFC,–,–
1549 (RILQVFTEAYADVER) [Peptide 1549],3%,48 SFC,–,–
1571 (ADGLVLFNRFLQPDI) [Peptide 1571],3%,48 SFC,–,–
ALLYIPLLTRMLMNL [Peptide 777],7%,87 SFC,7%,87 SFC
DPLIFFRPRVERLFG [Peptide 720],10%,125 SFC,10%,125 SFC
